Our source for the EC50 and CC50 values is PMC4976923, “Potent Allosteric Dengue Virus NS5 Polymerase Inhibitors: Mechanism of Action and Resistance Profiling” (PLoS Pathogens, 2016).

Some results are limits rather than exact numbers.

Holding throughout (type): cell-based
Series [1] concerns clinical DENV2 isolate MY97-10340. The series is described as follows: DENV2 infected A549 cells, high content imaging (HCI). The note with it: Dengue virus, 48 hr. On the procedure: (§1) 2 Co mpound testing with DENV dn I FAPA assays. Final dn I assa y reaction mixtures
(§2) 3 contained 100 nM DENV 5 ´UTR-L-3´UTR IVT RNA, 20 µ M ATP, 20 µM GTP, 20 µM
(§3) 4 UTP, 5 µM ATTO -CTP, and 100 nM of DENV FL NS5 protein in 15 µl in assa y buffer
(§4) 5 comprising 50 mM Tris/ HCl, pH 7.5, 10 mM KCl, 1 mM MgCl2, 0.3 mM MnCl2 (DENV2
(§5) 6 and 4) or 1 mM MnCl 2 (DENV1 and 3), 0.001% Triton- X-100 and 10 µ M cystein e [ 1] . To
(§6) 7 perform dose-respons e inhibition measurements, compounds from 0- 20 or - 100 µM
(§7) 8 concentr ations are two -fold seriall y diluted into 384-well black opaqu e plat es (Corning
(§8) 9 Costar), after which 100 nM DENV FL NS5 protein was added into resp ect ive wells. The
(§9) 10 plates wer e sealed, b riefl y shak en and centrif uged at 1500 rpm for 30 sec and incubated at RT
(§10) 11 for 15 min. Thereafter,RNA and ATTO -CTP, ATP, GTP and UTP were added to the wells to
(§11) 12 start the reactions. The pl ates wer e re-seal ed, shaken and centrifuged as before, followed b y
(§12) 13 incubation RT for 120 min. […]
(§13) 15 intestinal phosphatase (CIP), re- incubation at RT for 60 min and read on a Tecan Safire II
(§14) 16 microplate reader. […]
(§15) 8 DENV envelope protein ) and DRAQ5 (for nucl ear DNA) . Quantifications of DENV
(§16) 9 envelope protein were determined using the Opera high content imaging s ystem and anal ysis […]
(§17) 17 µM concentrations. At 48 hr of post-incubation, r enilla luciferas e activities were measured […]

The next series deals with DENV1, strain MY97-10245. Description: DENV1 infected A549 cells, high content imaging (HCI). As to conditions: 48 hr. As for the experimental part:
as §1, §2, §3, §4, §5, §6, §7, §8, §9, §10, §11, §12, §13, §14, §15, §16, §17

In a further series the test system is HuH-7. The series is described as follows: in vitro. As to conditions: HuH-7 (DENV2 replicon cells); 48 hr; ATP levels. On the procedure: A549, BHK-21 and Huh7 cells bearing stable DENV2 sub-genomic replicon or transiently electroporated DENV2-NGC replicon or infectious virus cDNAs were seeded into 384-well microplate (3,000 cells per well). After over-night incubation at 37°C with 5% CO2, the cells were treated with 2-fold serially diluted compounds, starting from 20 or 50 μM. At 48 hr of post-incubation, renilla luciferase activities were measured with the ViviRen live-cell substrate (Promega, USA) according to the manufacturer’s protocol. CellTiter-Glo reagent (Promega, USA) was then added to determine cytotoxic effects of compounds. For the HCV replicon assay, Huh-7.5 cells harboring the HCV replicon were seeded into a 96-well microplate (20,000 cells per well). At 48 hr after compound treatment, cells were assayed for firefly luciferase activity by using a Bright-Glo luciferase assay (Promega, USA). NITD-008, a nucleoside inhibitor of DENV and HCV was added as a control.
On the technique in general: In antiviral work, replicon cells carry a viral genome segment that copies itself.

With `COc1cccc(S(=O)(=O)NC(=O)c2cc(-c3ccc(C#CCO)s3)c(OC)cc2C)c1` [Compound 26i], the EC50 in series [1] came to 26.9 µM; in the series with DENV1, strain MY97-10245, 15.2 µM.

Regarding `COc1cccc(S(=O)(=O)NC(=O)c2cc(-c3ccc(C#CCO)s3)c(OC)cc2OC)c1` [Compound 27], in the series with HuH-7, the CC50 was > 50 µM.

One may read the EC50 as the concentration giving half of the maximal effect. As usually defined, the CC50 is the concentration at which the toxic effect on the cells reaches its halfway point. High values mean lower toxicity to the cells, low ones greater toxicity to the cells.
